Experiments:
cerebral granule cells [1] = experiment: Glutamate-induced neurotoxicity in primary cultures of cerebral granule cells (cell survival); type: cell-based, rat; conditions: for protection of cells from neurotoxic effect of glutamate, cotreatment: cotreatment 15 minutes with glutamate 50 μM; for protection from neurotoxic effect, cotreatment and prolonged incubation: cotreatment 35 minutes with glutamate, then prolonged exposure (35 minutes); for prevention of glutamate-induced neurotoxicity: pretreatment for 2 hours; for concentration required for maximum protective effect: pretreatment; for reversal of neurotoxic effect of glutamate by post-treatment: post-treatment 20 minutes, after glutamate administered intermittently
Description: (§1) 1.a. Primary cultures of cerebral granule cells from 8-day-old Sprague Dawley rats (Zivic Miller) [Gallo V. et al., Proc. Natl. Acad. Sci. USA 79, 7919-7923 (1982)]. These cultures contain >90% of granule cells, <5% of GABAergic neurons and <5% of glial cells [Vaccarino F. M. et al., J. Neurosci. 7, 65-76 (1987)]. The cells were used for the experiments on the 8th and 9th days of culture.
(§2) On the 8th and 9th days of culture, concentrations varying between 7 and 100 μM of the following substances are added: N-dichloro acetyl lyso GM1, N-monochloro acetyl lyso GM1, GT1b, GM1. More particularly, the monolayers of granule cells are preincubated with these compounds in Locke's solution (1 ml) for 120 minutes (or for periods of time varying between 0 and 120 minutes) at 37° C. Gangliosides and derivatives are previously dissolved and subsequently diluted, if necessary, in methanol: H2O/95:5. Aliquots of the solution are dried in a N2 current and gathered with a suitable volume of Locke's solution until the final concentration is reached.
1.c. Glutamate-induced neurotoxicity.
The neurotoxic effect of glutamate was assessed under various experimental conditions:
Influence of incubation time ([…]) of the substances before exposure to glutamate: intact cells are preincubated with N-dichloro acetyl lyso GM1, N-monochloro acetyl lyso GM1 (7 μM) and GT1b (60 μM) at 37° C. After removal of excess compound by washing, the cells are incubated with 50 μM of glutamate in the absence of Mg+2 for 15 minutes at room temperature after which the cells are washed three more times and then replaced in the medium. Cell survival is assessed after 24 hours by histochemical techniques, or after […] staining which gives green fluorescence to live cells and red to non-living cells.
Influence of the time interval between pre-treatment with ganglioside derivatives or gangliosides themselves and exposure to glutamate: intact granule cells are preincubated for 2 hours at 37° C. with N-dichloro acetyl lyso GM1 (7 μM) GT1b and GM1 (100 μM). Excess compound is removed by washing and the cells exposed to 50 μM of glutamate (in the absence of Mg^+2) for 15 minutes after various time intervals (1, 2, 4, 6, 12, 18, 24 and 48 hours).
Effect of simultaneous treatment with glutamate and gangliosides: intact granule cells are treated (15 and 35 minutes) with 50 μM of glutamate and the gangliosides N-dichloro acetyl lyso GM1 (7 μM), GT1b and GM1 (100 μM) . In the first type of experiment (cotreatment for 15 minutes) the excess compound is removed by washing, and then cell survival is assessed according to the described method. In the second type of experiment (cotreatment for […]) the cotreatment is prolonged for another 35 minutes of exposure to gangliosides.
Effect of N-dichloro acetyl lyso GM1 following intermittent exposure to glutamate: granule cells are exposed intermittently to glutamate and treated with N-dichloro acetyl lyso GM1 (7 μM) for 20 minutes (in the absence of Mg2+). The excess product is removed by washing.

PKC [2] = experiment: Translocation of PKC induced by glutamate: [3H]-phorbol ester binding on intact cells; type: cell-based, rat; conditions: for inhibition of PKC translocation, cotreatment and prolonged incubation: cotreatment 35 minutes with glutamate, then prolonged exposure (35 minutes)
Description: as §1, §2
1.d. Translocation of PKC induced by glutamate: assessment of [3H]-phorbol ester binding on intact cells.
The effects of binding of [3H]-phorbol ester are assessed under two different types of experimental conditions: […]
[…] After cotreatment the cells-are washed and [^3H]-PDBu binding is assessed in the presence of Mg^+2. Granule cells are grown on discs measuring 35 mm in diameter and then washed and incubated with Locke's solution containing 4-B-[^3H]-phorbol-12, 13-dibutyrate [^3H]-P(Bto)2, 12.5 Ci/mmol (1 Ci=37 GBq; New England Nuclear), in 0.1% fatty acid-free bovine albumin serum (Sigma Chemical Co.). […] The binding is constant for over one hour. After incubation the cells are washed 3 times with cold Locke's solution and suspended with NaOH 0.1M. The aliquots of suspension are used for protein determination [Lowry O. H. et al., J. Biol. Chem. 193, 256-275 (1951)]. Non-specific binding is assessed in the presence of 2 μM phorbol 12-tetradecanoate 13-acetate (PTA).

[3] = system: Mouse neuroblastoma cells (N2A); experiment: Neuritogenic activity in N2A cells: morphology, % of cells with neurites; type: cell-based
Description: Mouse neuroblastoma cells (N2A) at the 180th passage are placed in wells at a concentration of 10,000 cells per well (COSTAR-24). The next day the medium was substituted with 350 μl of DMEM+P/G+10% FCS.
All compounds are dissolved in chloroform/methanol 2:1 dried in N2 current and resuspended in DMEM+P/G+10% FCS. The number of neurites is assessed 24 hours later.

[4] = system: Mouse neuroblastoma cells (N2A); experiment: 3H Tdr in N2A cells; type: cell-based
[5] = system: Mouse neuroblastoma cells (N2A); experiment: MTT in N2A cells; type: cell-based
Granule cells = experiment: N2 anoxia in granule cells, viability by MTT; type: cell-based, rat; conditions: for MTT O.D. (570-630): N2 anoxia in absence of Mg2+; for MTT O.D. (570-630) / MTT O.D. as % of Control (+ MG^2+): MTT after 24 hours; for MTT O.D. as % of Control (+ MG^2+): N2 anoxia; for protection against endogenous glutamate-induced neurotoxicity under anoxic conditions: anoxia in N2 chamber
Description: Pretreatment was performed with LIGA 20 and 21 for 10 minutes, and with GM1 for 60 minutes. The cells are washed with serum and placed in anoxic conditions in the absence of Mg^+2 for 5 hours and replaced in the culture medium. Cell viability was measured 24 hours after with MTT.
as §1
Effect of N-dichloro acetyl lyso GM1 following cell anoxia (in N2 chamber) on protection from endogenous glutamate-induced neurotoxicity. Cell viability is assessed by colorimetry after 24 hours (MTT stains only live cells).

cerebral granule cells [6] = conditions: literature reports; cited from earlier work
PKC [7] = conditions: exposure of cerebral granule cells; literature reports; cited from earlier work
new-born rat = experiment: NMDA-induced neurotoxicity in new-born rat (mortality); type: in vivo; conditions: for mortality (deceased/treated) / relative mortality (% of treated): up to 5 days; for protection from mortality following i.c.v. injection of NMDA: s.c., 1 hour before and immediately after NMDA
Description: Newborn rats (7 days old) weighing about 13 g are injected with 25 nmol NMDA i.c.v. Under these conditions the excitotoxin induces a decrease of 28% in weight of the injected hemisphere and a mortality rate of 53.6%.
Administration of the compounds: injection method and parameters observed. […] The compounds were solubilized in PBS. The N-dichloro acetyl lyso GM1 and N-monochloro acetyl lyso GM1 derivatives were tested in comparison to magnesium sulfate, MK-801 (a non-competitive […] of the NMDA receptor) [G. McDonald et al., Eur. J. Pharmacol. 140: 153-157 (1987)] and kinurenic acid [P. Andiné, Neuro-science Letters, 90: 208-212 (1988)] which is capable of diminishing brain damage. Mortality was assessed 5 days after MNDA injection.

[8] = preincubated 2 hours at 100 μM, glutamate 50 μM
[9] = 75 nMoli/animal (2 mg/kg) i.p., 1 hr before and immediately after NMDA
[10] = 200 nMoli/animal sc, 1 hr before and immediately after NMDA 25 nMoli i.c.v.
[11] = cotreatment with glutamate 50 μM, 7 μM

Compound | protection of cells from neurotoxic effect of glutamate, cotreatment (cerebral granule cells [1]; 100 μM) | protection from neurotoxic effect, cotreatment and prolonged incubation (cerebral granule cells [1]; 100 μM) | persistence of protective effect on glutamate-induced neurotoxicity after removal of the medium (cerebral granule cells [1]; [8]) | inhibition of PKC translocation, cotreatment and prolonged incubation (PKC [2]; 100 μM) | Morphology (24 hr) % of cells with neurites ([3]; 1 × 10^−4 M) | ^3H Tdr. (48 hr) n = 3 ([4]; 1 × 10^−4 M) | MTT (48 hr) n = 3 ([5]; 1 × 10^−4 M) | protection from glutamate-induced cell damage (cerebral granule cells [6]) | translocation and activation of PKC induced by glutamate (PKC [7]) | concentration required for maximum protective effect (cerebral granule cells [1]; glutamate 50 μM) [µM] | protection against endogenous glutamate-induced neurotoxicity under anoxic conditions (Granule cells) | MTT O.D. (570-630) (Granule cells; pretreated 5 μm, 10 min) [O.D.] | MTT O.D. as % of Control (+ MG^2+) (Granule cells; pretreated 5 μm, 10 min) [%] | mortality (deceased/treated) (new-born rat; [10]) | relative mortality (% of treated) (new-born rat; [10]) [%] | protection from mortality following i.c.v. injection of NMDA (new-born rat) | further results
monosialosyl-N-tetraglycosyl-ceramide [GM1, reference compound] | is not | effective | no more than 1 hours | effective | 70-80% | 40834 ± 1885 | 0.259 ± 0.007 | offer protection | inhibits | – | – | – | – | – | – | – | MTT O.D. (570-630) (Granule cells; pretreated 100 μM, 60 min): 0.160 ± 0.010 O.D.; MTT O.D. as % of Control (+ MG^2+) (Granule cells; pretreated 100 μM, 60 min): 110%
N′-monochloro acetyl lyso GM1 [LIGA 22] | – | – | – | – | <5% | – | – | – | – | – | – | – | – | – | – | – | –
C[C@]12N[C@H](Cc3ccccc31)c1ccccc12 [MK 801, reference compound] | – | – | – | – | – | – | – | – | – | – | – | – | – | – | – | – | mortality (deceased/treated) (new-born rat; [9]): 6/16; relative mortality (% of treated) (new-born rat; [9]): 37%
trisialosyl-N-tetraglycosylceramide [GT1b, reference compound] | is not | effective | 4 h | effective | – | – | – | offer protection | inhibits | 60 | – | – | – | – | – | – | incubation time after which protection is significant (cerebral granule cells [1]; 60 μM, glutamate 50 μM): 60 min; prevention of glutamate-induced neurotoxicity (cerebral granule cells [1]; 60 μM, glutamate 50 μM): almost totally prevents
CCCCCCCCCCCCC/C=C/[C@@H](O)[C@H](CO[C@@H]1O[C@H](CO)[C@@H](O[C@@H]2O[C@H](CO)[C@H](O[C@@H]3O[C@H](CO)[C@H](O)[C@H](O[C@@H]4O[C@H](CO)[C@H](O)[C@H](O)[C@H]4O)[C@H]3NC(C)=O)[C@H](O[C@]3(C(=O)O)C[C@H](O)[C@@H](NC(C)=O)[C@H]([C@H](O)[C@H](O)CO)O3)[C@H]2O)[C@H](O)[C@H]1O)NC(=O)CCl [LIGA 21, N-Monochloroacetyl Lyso GM1] | – | – | – | – | 80-90% | 14256 ± 1594 | 0.158 ± 0.01 | – | – | – | active | 0.152 ± 0.013 | 105 | 0/8 | 0 | protected | concentration range of protection (cerebral granule cells [1]; glutamate-induced neurotoxicity): ~10 µM; Morphology (24 hr) % of cells with neurites ([3]; 5 × 10^−5 M): 80-90%; Morphology (24 hr) % of cells with neurites ([3]; 5 × 10^−6 M): <5%; ^3H Tdr. (48 hr) n = 3 ([4]; 5 × 10^−5 M): 36016 ± 5030; ^3H Tdr. (48 hr) n = 3 ([4]; 5 × 10^−6 M): 43035 ± 487; MTT (48 hr) n = 3 ([5]; 5 × 10^−5 M): 0.243 ± 0.008; MTT (48 hr) n = 3 ([5]; 5 × 10^−6 M): 0.324 ± 0.01
CCCCCCCCCCCCCC=CC(O)C(COC1OC(CO)C(OC2OC(CO)C(OC3OC(CO)C(O)C(OC4OC(CO)C(O)C(O)C4O)C3NC(C)=O)C(OC3(C(=O)O)CC(O)C(NC(C)=O)C(C(O)C(O)CO)O3)C2O)C(O)C1O)NC(=O)C(Cl)Cl (stereo not drawn) [LIGA 20, N-dichloroacetyl Lyso GM1] | – | – | – | – | – | – | – | – | – | 7 | active | 0.163 ± 0.012 | 112 | 1/8 | 12.5 | protected | concentration for maximum effect, times less than that of GT1b (cerebral granule cells [1]; 7 μM vs 60 μM): more than 8 times; preincubation time after which protection is evident (cerebral granule cells [1]; 7 μM, glutamate 50 μM): 5 min; protection of cells from neurotoxic effect of glutamate, cotreatment (cerebral granule cells [1]; 7 μM): effective; protection from neurotoxic effect, cotreatment and prolonged incubation (cerebral granule cells [1]; 7 μM): effective; reversal of neurotoxic effect of glutamate by post-treatment (cerebral granule cells [1]; 7 μM): prevents; reversal of neurotoxic effect of glutamate by post-treatment (cerebral granule cells [1]; 7 μM, listed as N-dichloro acetyl lyso GM1): active; persistence of protective effect on glutamate-induced neurotoxicity after removal of the medium (cerebral granule cells [1]; preincubated 2 hours at 7 μM, glutamate 50 μM): at least 24 hours; prevention of glutamate-induced neurotoxicity (cerebral granule cells [1]; 7 μM, glutamate 50 μM): almost totally prevents; inhibition of PKC translocation, cotreatment and prolonged incubation (PKC [2]; 7 μM): effective; inhibition of PKC translocation induced by glutamate, cotreatment (PKC [2]; [11]): inhibits; time of maximum activity in inhibiting PKC translocation (PKC [2]; [11]): 30 min
